No end group written: not given here.
Assays:
[1] = test system: MCF-7 cells (MUC1+, HLA-A*0201+); assay: 51Cr-release assay, peptide-induced CTLs from normal donors; assay type: cell-based, human; details: for % of Donors with at Least 30% Cell Kill: normal donors (n = 8), MCF-7 targets, 30% cell kill considered a response; for Lysis of MCF-7 cells by CTLs elicited with the peptide: 8 normal post-menopausal HLA-A*0201 women, E:T 100:1, 6 h, p = 0.008 vs negative control P11
[2] = biological target: HLA-A*0201 molecules (Homo sapiens, UniProt P04439, D140Y/D185E/D98H/E176V/E277Q/G131W/G231S/I119V/I121R/I166T/I218V/L300P/L318F/N151K/N90K/P208A/P217A/Q86G/Q94H/R138H/R169H/T345S); assay: Competitive peptide inhibition assay (F1-peptide displacement on T2 cells)
[3] = test system: CD8+ T cells (IFNγ production); assay: IFNγ ELISpot of peptide-induced CD8+ T cells; assay type: cell-based, human; details: for IFNγ production by CD8+ T cells generated to the peptide: normal donors, two rounds of stimulation, 24 h on ELISpot plate
Procedure: Figure 5 Production of IFNγ by CD8^+ T cells was induced in response to MUC1 peptides. Following two rounds of stimulation, CD8^+ cells were maintained for 24 h on an ELISpot plate. Spot numbers were determined using computer assisted video image analysis by Zellnet Consulting Inc. There were no significance differences compared to the negative peptide (p > 0.05).
IFNγ ELISpot plates from Mabtech (Stockholm, Sweden) were used to detect IFNγ producing MUC1-specific CTLs. The assay was performed using the capture IFNγ antibody as recommended by the manufacturer. Day five post R2-stimulation, the CTLs were washed three times and 1 × 10^5 cells were transferred to the washed and blocked IFNγ ELISpot plates and incubated at 37 °C in a 5% CO2 incubator for 24 h. After incubation the plates were washed with PBS, incubated with alkaline phosphatase-conjugated IFNγ antibody at room temperature for two hours and then spots were detected with BCIP/NBT substrate. Spot numbers were determined using computer assisted video image analysis by Zellnet Consulting Inc. (Fort Lee, NJ, USA).

[4] = test system: Autologous DCs pulsed with MUC1 peptides; assay: 51Cr-release assay against peptide-pulsed autologous DCs; assay type: cell-based, human; details: four normal donors, DCs pulsed with 50 μg/mL peptide and PADRE 10 μg/mL, E:T 100:1
Procedure: Autologous DCs pulsed with various MUC1 peptides (50 μg/mL) and PADRE peptide (10 μg/mL) were used as targets. Effector:target ratio was 100:1 and spontaneous release was less than 15% of complete lysis. * p < 0.05 (Student’s t-test) compared to the negative peptide.
The lytic activity of the in vitro stimulated peptide-specific CTLs was measured by a standard six-hour ^51Cr-release assay. The target cells used were MCF-7 breast cancer cell lines which express MUC1^+ and HLA-A*0201, and MDA-MB-231 cells, which are MUC1 negative and express HLA-A*0201. All tumor targets were treated with IFNγ one-day prior to use to up-regulate class I surface expression. Autologous DCs pulsed with the recall peptides, other modified peptides and the native peptide were also used as targets to evaluate cross-reactivity of MUC1-specific CTLs. The targets were labeled with Na^51CrO4 (0.1 mCi/mL) for 2 h, washed 3 times with PBS and re-suspended in T cell medium to a concentration of 2 × 10^4 cells/mL. […] After incubation, 30 μL of supernatant was transferred onto LUMA plates (Perkin Elmer, Waltham, MA, USA) and radioactive ^51Cr release was measured in a Topcount Micro-scintillation Counter (Packard Biosciences, Shelton, CT, USA). Percent specific lysis was calculated according to the following formula: Percent specific lysis = (experimental cpms − spontaneous cpms)/(complete cpms − spontaneous cpms) × 100. […]

[5] = test system: CD8+ T cells from HLA-A*0201 breast cancer patients; assay: 3H-thymidine proliferation of T cells from breast cancer patients; assay type: cell-based, human; details: 23 HLA-A*0201 breast cancer patients, DCs pulsed with 10 μg/mL peptide + IL-2, 5 days, vs no-peptide stimulated T cells
Procedure: CD8^+ T cells from the patients were incubated with irradiated autologous DCs pulsed with the various MUC1 peptides (10 μg/mL) plus IL-2 for 5 days and proliferation was assessed by measuring the ^3H-thymidine uptake. T cells from ~38% of the breast cancer patients responded to the selected MUC1 peptides (Figure 6).
Figure 6 T cells from ~38% of the HLA-A2^+ breast cancer patients regardless of their stage, ER/PR and HER2 status responded to the selected MUC1 peptides. 1 × 10^5 T cells were incubated with irradiated […] DCs pulsed with the various MUC1 peptides (10 μg/mL) + IL-2 for 5 days in complete media. Proliferation was assessed by measuring the ^3H-thymidine uptake and is reported as fold increase in counts per minute. The dotted line indicates the two-fold increase in proliferation.

[6] = test system: MCF-7 cells (HLA-A*0201+, MUC1+); assay: 51Cr-release assay, peptide-induced CTLs from breast cancer patients; assay type: cell-based, human; details: for Lysis of MCF-7 cells by T cells from cancer samples: all three breast cancer patient samples, E:T 100:1
Text: Figure 7 In vitro stimulation of T cells from HLA-A*0201^+ cancer patients (peri-menopausal) with anchor-optimized and/or glycosylated MUC1 peptides elicited strong CTL activity. (A) PBLs underwent two rounds of stimulation and sorted CD8^+ T cells were subjected to a ^51Cr-release assay. Targets were MCF-7 cells (HLA-A*0201^+, MUC1^+). Effector:target ratio was 100:1 and spontaneous release was less than 25% of complete lysis. The filled triangles designate normal individuals and the open triangles designate breast cancer patients. […] Following two rounds of stimulation, CD8^+ cells were maintained for 24 h on an ELISpot plate. Spot numbers were determined using computer assisted video image analysis by Zellnet Consulting Inc. (FortLee, NJ, USA). There was no evidence of a significance difference in spot numbers between cancer patients and healthy controls (Wilcoxon rank sum test; p > 0.05).
An optimized protocol for the generation of peptide-specific CTLs was developed that relied upon autologous DCs for stimulation. PBMCs (2 × 10^6 cells/mL of AIM V medium) were transferred to a 24-well plate and incubated for 2 h at 37 °C. Non-adherent lymphocytes were washed off with PBS and the adherent cells were cultured in X-VIVO medium containing GM-CSF (1000 U/mL) and IL-4 (1000 U/mL) to generate DCs. […] DCs were analyzed by flow cytometry for appropriate maturation markers. […] Five to seven days later, T cells were analyzed for cytolytic activity by ^51Cr-release assay and interferon gamma production by ELISPOT.
The lytic activity of the in vitro stimulated peptide-specific CTLs was measured by a standard six-hour ^51Cr-release assay. […] After incubation, 30 μL of supernatant was transferred onto LUMA plates (Perkin Elmer, Waltham, MA, USA) and radioactive ^51Cr release was measured in a Topcount Micro-scintillation Counter (Packard Biosciences, Shelton, CT, USA). […]

[7] = biological target: HLA-A*0201 molecules on T2 cells (Homo sapiens, UniProt P04439, D140Y/D185E/D98H/E176V/E277Q/G131W/G231S/I119V/I121R/I166T/I218V/L300P/L318F/N151K/N90K/P208A/P217A/Q86G/Q94H/R138H/R169H/T345S); assay: MHC stabilization assay on T2 cells (fluorescence index); assay type: cell-based; details: peptide 0–100 μg/mL, β2-microglobulin 1 μg/mL, 18 h 37 °C, BB7.2 antibody, flow cytometry
Procedure: Figure 1 MUC1 peptides (anchor-optimized and glycosylated) stabilized HLA-A*0201 molecules on T2 cells. Increasing amounts of the MUC1 peptides (0–100 μg/mL) and β2-microglobulin (1 μg/mL) were incubated with T2 cells for 18 h at 37 °C prior to staining with the HLA-A*0201 antibody (clone BB7.2, Pharmingen). Mean fluorescence intensity (MFI) was determined by flow cytometry and the fluorescence index (FI) was calculated from the formula: FI = (FS − FB)/(FT2 − FB) × 100 where FS is the MFI of the test peptides, FB is the non-peptide isotype antibody-stained control MFI, and FT2 is the non-peptide HLA-A*0201 antibody-stained control MFI.
Peptide binding to HLA-A*0201 was analyzed using TAP1- and TAP2-deficient T2 cells which express the HLA-A*0201 allele. […] Binding of the peptides was measured using flow cytometry for upregulation of HLA-A2 surface expression on the T2 cells. […] Mean fluorescence intensity (MFI) was determined and the fluorescence index (FI) was calculated from the formula: FI = (FS − FB)/(FT2 − FB) × 100 where FS is the MFI of the test peptides, FB is the no-peptide isotype antibody-stained control MFI, and FT2 is the no-peptide HLA-A2 antibody-stained control MFI [52].

Molecule: ALGSTAPPV [P9, unmodified native MUC1 degenerate TR peptide, reference compound]
- % of Donors with at Least 30% Cell Kill ([1]; E:T 100:1): 12.50%

Molecule: SLSYTNPAV [P7]
- IC50 [2]: 441 nM

Molecule: SLAPT(Tn)VHNV [P4, glycosylated anchor-optimized MUC1 peptide]
- Fold higher affinity than the known M1.1 and M1.2 MUC1 peptides ([2]; discussion, '8- to 30-fold, respectively'): 8 fold
- IFNγ production by CD8+ T cells generated to the peptide [3]: showed production of IFNγ
- Lysis of MCF-7 cells by CTLs elicited with the peptide [1]: significant lysis
- Percent of donors that will respond (lower limit of 95% CI) ([1]; based on considering 30% cell kill a response): at least 35%
- % of Donors with at Least 30% Cell Kill ([1]; E:T 100:1): 75%
- Lytic reactivity of CTLs against DCs pulsed with immunizing or native P1 peptide [4]: reacted against the native P1:STAPPVHNV
- Patients responding with >2-fold increase in proliferation [5]: 10/23
- Lysis of MCF-7 cells by T cells from cancer samples [6]: greater than 30%

Molecule: STAPT(Tn)VHNV [P2, Tn-glycosylated MUC1 peptide]
- IFNγ production by CTLs elicited by the peptide, one individual ([3]; CTLs from one normal individual): strong production of IFNγ
- IFNγ production by CD8+ T cells generated to the peptide [3]: showed production of IFNγ
- Lysis of MCF-7 cells by CTLs elicited with the peptide, one individual ([1]; CTLs from one normal individual, E:T 100:1): low lysis

Molecule: LLLLTVLTV [P5]
- IC50 [2]: 11100 nM

Molecule: CC(C)C[C@H](NC(=O)[C@@H](N)CO)C(=O)N[C@@H](C)C(=O)N1CCC[C@H]1C(=O)N1CCC[C@H]1C(=O)N[C@H](C(=O)N[C@@H](Cc1c[nH]cn1)C(=O)N[C@@H](CC(N)=O)C(=O)N[C@H](C(=O)O)C(C)C)C(C)C [P15]
- IC50 [2]: 363 nM

Molecule: STAPPVHNV [P1, native MUC1 degenerate tandem repeat peptide]
- IC50 (concentration producing 50% inhibition of F1-peptide binding) ([2]; T2 cells, F1-peptide 100 ng/mL, β2-microglobulin 1 μg/mL, competitor 0–100 μg/mL, flow cytometry MFI, Prism): 10.13 µg/mL
- Affinity class of binder to HLA-A*0201 ([2]; scored from IC50 in the competition assay on T2 cells): medium (“medium affinity binders” with IC50 of ≥to 5 μg/mL and <15 μg/mL)
- Lysis of MCF-7 cells by CTLs elicited with the peptide [1]: did not elicit lytic T cells
- Binding to HLA-A*0201 on T2 cells by fluorescence index (FI) [7]: bound moderately
- Patients responding with >2-fold increase in proliferation [5]: 8/23
- Lysis of MCF-7 cells by T cells from cancer samples [6]: greater than 30%
- Activation of lytic T cells from breast cancer patients ([6]; three breast cancer patients, MCF-7 targets): effectively activated lytic T cells from all three breast cancer patients
